Our source for the Kd values is ChEMBL document CHEMBL6127040, “Discovery and optimization of isoliquiritigenin as a death-associated protein kinase 1 inhibitor” (Eur J Med Chem, 2024).

Structures are written as SMILES.

In the experiment the target is Death-associated protein kinase 1 (Homo sapiens, UniProt P53355). In words: Binding affinity to DAPK1 (unknown origin) assessed as dissociation constant by ITC analysis.
Death-associated protein kinase 1, sequence (P53355 whole entry): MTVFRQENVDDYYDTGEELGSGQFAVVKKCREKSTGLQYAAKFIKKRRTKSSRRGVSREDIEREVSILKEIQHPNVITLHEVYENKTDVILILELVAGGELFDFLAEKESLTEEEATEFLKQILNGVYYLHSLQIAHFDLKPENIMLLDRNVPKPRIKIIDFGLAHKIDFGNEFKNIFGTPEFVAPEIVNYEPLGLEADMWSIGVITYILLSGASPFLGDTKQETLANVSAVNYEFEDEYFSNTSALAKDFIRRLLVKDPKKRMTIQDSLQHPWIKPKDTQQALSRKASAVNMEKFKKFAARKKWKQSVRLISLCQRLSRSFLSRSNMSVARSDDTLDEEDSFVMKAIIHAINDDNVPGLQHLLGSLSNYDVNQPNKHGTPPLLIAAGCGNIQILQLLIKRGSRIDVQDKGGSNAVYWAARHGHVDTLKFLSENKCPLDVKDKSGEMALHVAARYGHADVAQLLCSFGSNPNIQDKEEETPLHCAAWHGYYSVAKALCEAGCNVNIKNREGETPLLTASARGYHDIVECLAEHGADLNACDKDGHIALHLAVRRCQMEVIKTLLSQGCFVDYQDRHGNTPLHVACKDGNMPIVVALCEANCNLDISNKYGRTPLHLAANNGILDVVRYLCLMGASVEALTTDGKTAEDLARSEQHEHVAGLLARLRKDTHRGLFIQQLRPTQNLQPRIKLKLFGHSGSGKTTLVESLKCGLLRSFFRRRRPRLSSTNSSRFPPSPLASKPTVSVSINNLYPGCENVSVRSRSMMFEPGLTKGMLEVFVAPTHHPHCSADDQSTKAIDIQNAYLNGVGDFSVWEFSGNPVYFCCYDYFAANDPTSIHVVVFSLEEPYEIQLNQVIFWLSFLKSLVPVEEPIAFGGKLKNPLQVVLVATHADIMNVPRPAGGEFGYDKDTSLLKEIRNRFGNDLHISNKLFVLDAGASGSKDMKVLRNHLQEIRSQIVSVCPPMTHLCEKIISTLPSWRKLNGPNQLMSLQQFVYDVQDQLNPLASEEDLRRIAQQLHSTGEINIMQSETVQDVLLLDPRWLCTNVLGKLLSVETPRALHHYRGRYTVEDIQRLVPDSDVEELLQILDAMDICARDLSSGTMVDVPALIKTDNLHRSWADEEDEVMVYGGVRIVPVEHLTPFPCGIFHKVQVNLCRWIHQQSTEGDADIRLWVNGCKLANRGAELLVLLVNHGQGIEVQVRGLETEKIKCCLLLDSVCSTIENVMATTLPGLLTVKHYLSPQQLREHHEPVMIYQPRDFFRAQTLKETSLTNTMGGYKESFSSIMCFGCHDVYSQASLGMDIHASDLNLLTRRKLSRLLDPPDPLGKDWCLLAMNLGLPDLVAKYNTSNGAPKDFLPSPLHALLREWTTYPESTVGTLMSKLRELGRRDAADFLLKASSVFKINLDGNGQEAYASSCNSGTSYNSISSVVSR

As to `O=C(/C=C/c1ccc(O)cc1)c1ccc(O)cc1O` [ISOLIQUIRITIGENIN], the Kd amounted to 2480 nM.
